# Results as given in patent US12528774B2, “Thiosemicarbazone compounds and uses thereof” (The Regents of the University of California, priority 2019, dated 2026).
# Test system: electron transport chain complexes of isolated mitochondria
# Assay: Electron flow assay in isolated mitochondria
# Type: biochemical, mouse
# Conditions: HCT-13 + Cu(II) 20 μM
# Protocol: FIG. 3A: Mito Stress Test of MIAPACA2 PDAC cells treated with HCT13 (25 nM)+Cu(II) (20 μM) for 24h. FIG. 3B: electron flow assay in isolated mitochondria treated with HCT-13 (100 nM)+Cu(II) (20 μM) for 1h. FIG. 3C: viability of 143 BTK parental (wild type, WT) and ρ0 cells after 48h of the indicated HCT13 concentration+Cu(II) (20 μM) treatment, assessed with Trypan Blue Staining. FIG. 3D: 48h cell cycle histogram and plots of S-phase arrest plots in 143 BTK WT and 143 BTK ρ0 cells at 24, 48 and 72h following treatment with indicated concentrations of HCT13+Cu(II)(20 μM). (mean±SD, n=2, one-way ANOVA corrected for multiple comparisons by Bonferroni adjustment, * P<0.05; ** P<0.01; *** P<0.001). […]
# Mito Stress Test and Electron Flow Assay: All oxygen consumption rate (OCR) was measured using a XF24 Analyzer (Agilent) and normalized per μg protein. […] OCR was measured before (total respiration) and after the sequential injection of 1 μM oligomycin (complex V inhibitor), 0.75 μM FCCP (uncoupler), and 1 μM of rotenone and myxothiazol (complex I and III inhibitors, respectively), as described previously (1). Mitochondrial respiration was calculated by subtracting the non-mitochondrial respiration left after rotenone and myxothiazol injection. […] OCR was measured before and after the sequential injections described in the previous paragraph. […]
compound,measurement,setting,value
"CN(C)C(=S)N/N=C/c1nccc2cc(F)ccc12 (mixture of isomers) [HCT13, (E)-2-((6-Fluoroisoquinolin-1-yl)methylene)-N,N-dimethylhydrazine-1-carbothioamide and (Z)-2-((6-Fluoroisoquinolin-1-yl)methylene)-N,N-dimethylhydrazine-1-carbothioamide]",mitochondrial ETC complex activity,,decreased activity of complexes I and II
same,mitochondrial ETC complex activity,listed as HCT-13,ETC Complex 1 was most dramatically affected
